{"source": "patent US20260256811A1", "about": "“Humoral Immune Activators for the Treatment of Humoral Immunosuppressed Pathologies, Cancer and Infectious Disease and Humoral Immune Suppressors for the Treatment of Inflammatory Diseases” (Navrogen, Inc., priority 2022, published 2026)", "key": {"human CD16a-158F": {"molecular_target": "T1, human CD16a-158F (Homo sapiens, UniProt P08637)", "T1 construct": "made in house", "T1 sequence (P08637 with tags, fused parts or gaps)": "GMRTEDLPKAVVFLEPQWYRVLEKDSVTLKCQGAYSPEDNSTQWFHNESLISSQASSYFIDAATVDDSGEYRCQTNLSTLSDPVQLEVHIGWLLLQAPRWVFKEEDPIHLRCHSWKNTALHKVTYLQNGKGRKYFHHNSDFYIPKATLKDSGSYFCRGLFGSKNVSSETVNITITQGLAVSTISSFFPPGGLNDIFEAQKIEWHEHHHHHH", "assay": "ELISA: CD16a-158F-HIS binding to coated pertuzumab (PTZ)", "conditions": "for enhancement of CD16a-158F binding to IgG (PTZ): 10 μM, P<0.005; for suppression of CD16a-PTZ interaction: 2.5 μg/mL PTZ coat, human CD16a-158F-HIS probe, P≤0.005", "experimental": "(§1) Analysis of Compound 2 derived analogs described in Example 3 were conducted testing for enhanced CD16a FcR binding to IgG via ELISA. Briefly, 96 well plates were coated with PTZ as described above and probed with CD16a-158F-HIS in the presence of 10 μM parental Compound 2 and R5/R6 Compound analogs 22-34 to assay for those mediating enhanced CD16a-IgG binding. […] To further evaluate the impact of enhanced binding these compounds were tested for enhancing human PBMC ADCC as described above. Human breast cancer SKBR3 cells were plated in black 96-well microplates at 5,000 cell/well in R7.5 and grown overnight at 37° C. in 5% CO2. The next day 50,000 PBMCs in R1 medium were added per well in the presence of 1 or 5 μM of each compound or ethanol (EtOH) vehicle control in triplicates. Wells treated with EtOH and PTZ without PBMCs were used as a negative control. Cultures were incubated for 24 hours at 37° C. in 5% CO2 in triplicate. After incubation, target cell viability was quantified via Cell Titer-GLO (Promega) using a Varioskan plate reader. Units are shown as relative luminescent units (RLU).\nAnalogs of this class may be useful for suppressing inflammatory diseases. […] The teaching here has shown that the Compound 1, 2, 3 and 4 scaffolds can be utilized to add chemical groups that can enhance their activity for CD16a stimulation. Here we provide an example of how these scaffolds can be used to develop CD16a antagonists to suppress CD16a-IgG interactions and downstream activities, including production of proinflammatory cytokines such as IFNγ. FIGS. 10 and 13 show ELISA binding assays as described in Example 1. Briefly, 96-well clear microplates were coated with 2.5 μg/mL pertuzumab (PTZ) IgG or HSA as negative control (no PTZ). Wells were then probed with human CD16a-158F-HIS with or without compounds to monitor CD16a-PTZ binding. […] These scaffolds embody a primary inventive step that is taught within this application."}, "SKBR3 cells": {"tested_on": "SKBR3 cells", "assay": "ADCC killing of SKBR3 cells via pertuzumab with human PBMCs", "assay_type": "cell-based", "conditions": "1 or 5 μM, PTZ, 24 hours, P<0.0000075 over Compound 2", "experimental": "as §1"}, "[1]": {"assay": "Metabolic stability in mouse liver microsomes", "assay_type": "in vitro ADME", "experimental": "(§2) We next tested Compounds 2, 26, 27 and 33 for metabolic stability using human and mouse microsomes. For each test compound, samples were diluted a final concentration of 2 μg/mL in 25 mM potassium phosphate buffer with liver microsomes of each species at a final concentration of 0.5 mg/mL. The enzyme reaction was initiated by the addition of NADPH reagent at a final concentration of 1 mM. For negative control samples, NADPH reagent was not added. Samples were incubated at 37° C. on a 50-RPM orbital shaker, and an aliquot was removed at pre-determined timepoints at 0, 5, 10, 15, 30, and 60 minutes. Samples were then precipitated with three volume of acetonitrile containing propranolol as an internal standard, and centrifuged for 10 min at 2000 g then analyzed by LC/MS/MS. Note that compounds undergo only Phase I metabolism in liver microsomes in the presence of NADPH cofactors. Data interpretation of results are based on percent parent compound remaining relative to 0-minute incubation samples, from which the elimination half-life is calculated based on the natural log of % compound remaining vs. time plot. The following parameters were calculated to estimate the compound's in vitro metabolic stability: Cmp=concentration of microsomal proteins (mg/mL); t1/2=the half-life (min), where t1/2 is equal to 0.693/slope; CLint=the intrinsic hepatic clearance (μL/min/mg), where CLint is equal to 0.693/(t1/2×Cmp)."}, "[2]": {"assay": "Metabolic stability in human liver microsomes", "assay_type": "in vitro ADME", "experimental": "as §2"}, "CD16a-158F FcR": {"molecular_target": "T2, CD16a-158F FcR (Homo sapiens, UniProt P08637)", "T2 construct": "host or cells: Jurkat (JKT-CD16a luciferase reporter line)", "T2 sequence (P08637 17-254)": "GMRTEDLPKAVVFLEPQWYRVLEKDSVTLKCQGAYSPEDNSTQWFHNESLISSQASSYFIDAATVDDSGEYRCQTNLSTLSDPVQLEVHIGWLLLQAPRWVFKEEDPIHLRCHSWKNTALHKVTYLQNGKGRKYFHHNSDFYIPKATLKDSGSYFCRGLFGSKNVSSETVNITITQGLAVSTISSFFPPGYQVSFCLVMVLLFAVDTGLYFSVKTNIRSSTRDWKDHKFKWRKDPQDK", "T2 sequence (P20963 22-164 partner)": "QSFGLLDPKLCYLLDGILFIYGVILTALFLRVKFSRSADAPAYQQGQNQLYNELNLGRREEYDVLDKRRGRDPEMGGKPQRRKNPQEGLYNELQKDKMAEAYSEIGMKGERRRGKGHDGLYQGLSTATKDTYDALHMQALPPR", "assay": "Jurkat-CD16a-158F-luciferase (JKT-CD16a) reporter bioassay", "assay_type": "cell-based"}}, "data": [{"smiles": "C[C@H](CCCNCCOCCOCCOCCOCCOCCOCCOCCOCCOCCOCCOCCO)[C@H]1CC[C@@]2(C)C3CC[C@H]4C(C)(C)[C@@H](O)CC[C@@]45C[C@@]35CC[C@]12C", "note": "(stereo partly shown) [Compound 33]", "values": [{"measurement": "enhancement of CD16a-158F binding to IgG (PTZ)", "setting": "human CD16a-158F", "result": "significantly enhanced"}, {"measurement": "enhancement of ADCC killing of SKBR3 cells", "setting": "SKBR3 cells", "result": "enhanced ADCC most significantly"}, {"measurement": "half-life at 2 μg/mL", "setting": "[1]; mouse, microsomes", "result": 65.8, "unit": "min"}, {"measurement": "microsomal CLint at 2 μg/mL", "setting": "[1]; mouse, microsomes", "result": 21.1, "unit": "µL/min/mg"}, {"measurement": "half-life at 2 μg/mL", "setting": "[2]; human, microsomes", "result": 64.5, "unit": "min"}, {"measurement": "microsomal CLint at 2 μg/mL", "setting": "[2]; human, microsomes", "result": 21.5, "unit": "µL/min/mg"}]}, {"smiles": "CC(C)=CCC[C@@H](C)[C@H]1CC[C@@]2(C)C3=C(CC[C@]12C)[C@@]1(C)CC[C@H](O)C(C)(C)[C@@H]1CC3", "note": "[Compound 1, lanosta-8,24-dien-3β-ol]", "values": [{"measurement": "JKT-CD16a activation (luciferase RLU) in the presence of IgG", "setting": "CD16a-158F FcR; OV-CD20 target cells plus 2.5 μg/mL rituximab, 12-18 hours, vs vehicle or no compound", "result": "significant enhancement"}, {"measurement": "JKT-CD16a-158F FcR activation (luciferase RLU) in the absence of IgG antibody", "setting": "CD16a-158F FcR; OV-CD20 target cells without antibody, lower levels than with IgG", "result": "stimulated"}]}, {"smiles": "C[C@H](CCC(=O)O)[C@H]1CC[C@@]2(C)C3CC[C@H]4C(C)(C)[C@@H](O)CC[C@@]45C[C@@]35CC[C@]12C", "note": "(stereo partly shown) [Compound 29]", "values": [{"measurement": "suppression of CD16a-PTZ interaction", "setting": "human CD16a-158F", "result": "~ 49%"}]}, {"smiles": "C[C@H](CCCNCCOCCO)[C@H]1CC[C@@]2(C)C3CC[C@H]4C(C)(C)[C@@H](O)CC[C@@]45C[C@@]35CC[C@]12C", "note": "(stereo partly shown) [Compound 32]", "values": [{"measurement": "suppression of CD16a-PTZ interaction", "setting": "human CD16a-158F", "result": "~ 49%"}]}, {"smiles": "C[C@H](CCCO)[C@H]1CC[C@@]2(C)C3CC[C@H]4C(C)(C)[C@@H](O)CC[C@@]45C[C@@]35CC[C@]12C", "note": "(stereo partly shown) [Compound 31]", "values": [{"measurement": "suppression of CD16a-PTZ interaction", "setting": "human CD16a-158F", "result": "~ 49%"}]}, {"smiles": "CC(C)NCCC[C@@H](C)[C@H]1CC[C@@]2(C)C3CC[C@H]4C(C)(C)[C@@H](O)CC[C@@]45C[C@@]35CC[C@]12C", "note": "(stereo partly shown) [Compound 26]", "values": [{"measurement": "enhancement of CD16a-158F binding to IgG (PTZ)", "setting": "human CD16a-158F", "result": "significantly enhanced"}, {"measurement": "microsomal CLint at 2 μg/mL", "setting": "[1]; mouse liver microsomes 0.5 mg/mL, 2 μg/mL compound, NADPH, read-out: CLint (μL/min/mg protein) mouse", "result": 2.16, "unit": "µL/min/mg"}, {"measurement": "half-life at 2 μg/mL", "setting": "[1]; mouse liver microsomes 0.5 mg/mL, 2 μg/mL compound, NADPH, read-out: T½ (minutes) mouse", "result": 641, "unit": "min"}, {"measurement": "microsomal CLint at 2 μg/mL", "setting": "[2]; human liver microsomes 0.5 mg/mL, 2 μg/mL compound, NADPH, read-out: CLint (μL/min/mg protein) human", "result": 3.04, "unit": "µL/min/mg"}, {"measurement": "half-life at 2 μg/mL", "setting": "[2]; human liver microsomes 0.5 mg/mL, 2 μg/mL compound, NADPH, read-out: T½ (minutes) human", "result": 456, "unit": "min"}]}]}
